Experiment [1] in a line: Food intake in mice after peptide injection. It counts as in vivo. As to the method:
(§1) Analysis of gastrointestinal functions. Eight-week-old C57BL6 male mice were housed individually in a regulated environment. Before intraperitoneal treatment with different peptides, mice were deprived of food for 16 hours with free access to water. Food intake was measured by placing preweighed pellets in the cage and weighing uneaten pellets at 5 hours after treatment. For intracerebroventricular injection of different peptides, mice were deprived of food for 16 hours. Free-hand injections were performed at 2 hours after light onset and food intake monitored for 5 hours. To estimate gastric emptying responses, mice deprived of food for 16 hours were given food pellets for 90 min. before injection of different hormones or saline. After treatment, mice were deprived of food again and sacrificed 0.5, 1, and 2 hours later. The stomach was excised at the pylorus and cardia before weighing. Gastric emptying was calculated by subtracting the stomach weight of treated mice from those sacrificed at the time of peptide injection.

Experiment [2] concerns plasma membrane preparations of rat jejunum. Put plainly: I125-obestatin radioligand binding to jejunal membranes. As to conditions: for competition for labeled obestatin binding: displacement of iodinated wild type obestatin, rat jejunal membranes. As to the method: Iodination of obestatin was performed using the lodogen (Pierce, Upland, Ind.) procedure. Mixtures of the peptide (20 μg) and 1 mCi [125I] Nal were transferred to precoated lodogen vials and incubated for 4 min. The 125I-labeled peptide was applied to a Sep-Pak C18 cartridge (Waters) before elution with 60% acetonitrile/0.1% TFA. For radioligand binding assays, rat jejunum or other tissues were washed with buffer A (20 mM Hepes, 5 mM EDTA, 1 mM dithiothreitol (DTT), 10 μM amidinophenylmethanesulfonyl fluoride, 5 mg/L leupeptin, 100 mM KCl, pH 7.5), cut into small pieces, and homogenized using a motorized homogenizer. The homogenates were centrifuged at 1,000 g for 5 min. and the supernatant was centrifuged at 300,000 g for 1 hour at 2° C. The pellets (crude membrane fractions) were resuspended with buffer A without KCl, quickly frozen under liquid nitrogen, and stored at −80° C. until use.
After incubation, the tubes were centrifuged for 10 min. at 10,000 g, and pellets were washed twice in ice-cold PBS before quantitation of radioactivity with a γ-spectrophotometer. Specific binding was calculated by subtracting nonspecific binding from total binding.

A short description of experiment [3]: Body weight in adult male rats under long-term peptide treatment. The settings on record: 1 μmol per kg body weight, three times daily. Format: in vivo. The source says: The observed inhibition of jejunal contraction may trigger an afferent vagus signal to induce a central satiety response.
The nature of a further experiment: Gastric emptying in mice. Format: in vivo. The settings on record: 1 μmol per kg body weight, 0.5, 1 and 2 hours after treatment. The procedure: as §1
In another experiment the test system is jejunum muscle strips. Briefly: Isometric force measurement of jejunal muscle strips. The settings on record: in vitro; for contractile activity of jejunum muscle strips: isometric force, percent of maximal acetylcholine contraction. The procedure: Isometric force measurements. Strips of jejunal muscle (˜1 cm in length) were cut along the longitudinal axis of the circular muscle layer and the mucosa was removed to minimize contamination with endogenous peptides. Muscle strips were mounted to a TIS8105R (Kent Scientific Corporation, Torrington, Conn.) isometric strain gauge and immersed in a 5 ml organ bath maintained at 37° C. with oxygenated KRB [Krebs-Ringer phosphate buffer, consisting of 50 mM HEPES, 100 mM NaCl, 5 mM KCl, and 1 mM each of MgCl2, NaH2PO4, and CaCl2] as previously described. A resting force of 1.0 g was applied to intestinal muscles and a 1.5 hours equilibration period was allowed before testing of different peptides during a 5 min. period. After each test, muscle strips were washed with fresh KRB for 20 min. to allow full recovery of basal contractile activities. Maximal contraction was evaluated at the beginning and end of each experiment after treatment with 10 μM of acetylcholine chloride. Contractility data were digitized and stored in a computer using DAS Wizard™ (Measurement Computing, Middleboro, Mass.). The magnitude of contractile strength is expressed as percent of maximal contraction induced by acetylcholine.

The subject of experiment [4] is cultured rat pituitary cells. Put plainly: Growth hormone secretion by cultured anterior pituitary cells. The settings on record: 1 hour incubation. Format: cell-based. As to the method:
Pituitary cell cultures. Anterior pituitaries were removed from adult male Sprague-Dawley rats and dispersed with 0.3% collagenase, 0.1% hyaluronidase and DNase I (10 μg/ml). The cell suspension was centrifuged at 300 g for 5 min. and cells were washed twice before incubation in Dulbecco minimal essential medium (DMEM) containing 0.1% bovine serum albumin (BSA), penicillin (100 units/ml), streptomycin (100 μg/ml), fungizone (2.5 μg/ml), and 10% fetal calf serum. Cells were seeded onto poly-lysine-coated 24-well plates at a density of ˜3×10^5 cells/well. Cultures were kept in a humidified atmosphere of 5% CO2 and 95% air at 37° C. […] Media was removed for growth hormone measurement by an enzyme-linked immunosorbent assay.

Setting [5] is: intraperitoneal injection, adult male mice deprived of food for 16 hours, cumulative intake up to 5 hours.
The mark [6] stands for this setting: intracerebroventricular treatment, 8 nmol per kg body weight, mice, monitored for 5 hours.

Ends that are not written are not given here. * marks the point of attachment. Octanoyl = CCCCCCCC(=O)*

The results in this text go back to patent US20060229250A1, “Ghrelin associated peptide and its uses” (priority 2005, published 2006).

With “FNAPFDVGIKLSGVQYQQHSQALG (human) [NA-obestatin]”, the food intake entry in experiment [1] (setting [5]) is “less effective”.
“I125-obestatin: obestatin iodinated with [125I] NaI by the Iodogen procedure”: the “specific binding of I125-obestatin” value in experiment [2] (saturation binding, crude plasma membrane fractions of rat jejunum) is listed as “High affinity binding”.
“FNAPFDVGIKLSGVLYQQHSQAL-NH2 [L15-obestatin]”: the “competition for labeled obestatin binding” value in experiment [2] was “potency similar to the wild type obestatin”.
Regarding FNAPFDVGIKLSGVQYQQHSQAL-NH2 [obestatin], the food intake entry in experiment [1] (setting [6]) was “decreased food intake”; in experiment [1] (setting [5]), “suppressed food intake in a time- and dose-dependent manner”. For the same substance, the body weight entry in experiment [3] is on record as “suppressed body-weight gain”. Moreover, the gastric emptying activity entry in the experiment “Gastric emptying in mice” was “sustained suppression of gastric emptying activity”. In the experiment with jejunum muscle strips, the “contractile activity of jejunum muscle strips” value was “decreased the contractile activity”. Also, the “effect on ghrelin-stimulated contractile activity of jejunum muscle strips” value in the experiment on jejunum muscle strips (together with ghrelin) is given as “antagonized the stimulatory effect of ghrelin”. Besides, the growth hormone secretion entry in experiment [4] is “did not increase GH secretion”.
As for “ghrelin: peptide of 28 amino acids, serine-3 n-octanoylated; endogenous GHSR ligand; purchased from Phoenix Pharmaceuticals (GSS(Octanoyl)FLSPEHQRVQQRKESKKPPAKLQPR; UniProt Q9UBU3 24-51, looked up) [reference compound]”, in experiment [3], the body weight result is “increased body weight”. For the same substance, the “contractile activity of jejunum muscle strips” value in the experiment with jejunum muscle strips is listed as “stimulatory effect”. The growth hormone secretion result in experiment [4] is “stimulated growth hormone secretion”. In addition, the “competition for labeled obestatin binding” value in experiment [2] was “does not compete”.
With MTII [reference compound], the food intake entry in experiment [1] (setting [6]) is recorded as “anorexigenic effect”.
